Experiment [1] addresses T1, Dual specificity mitogen-activated protein kinase kinase 7 (Homo sapiens, UniProt O14733).
T1 sequence (O14733 whole entry): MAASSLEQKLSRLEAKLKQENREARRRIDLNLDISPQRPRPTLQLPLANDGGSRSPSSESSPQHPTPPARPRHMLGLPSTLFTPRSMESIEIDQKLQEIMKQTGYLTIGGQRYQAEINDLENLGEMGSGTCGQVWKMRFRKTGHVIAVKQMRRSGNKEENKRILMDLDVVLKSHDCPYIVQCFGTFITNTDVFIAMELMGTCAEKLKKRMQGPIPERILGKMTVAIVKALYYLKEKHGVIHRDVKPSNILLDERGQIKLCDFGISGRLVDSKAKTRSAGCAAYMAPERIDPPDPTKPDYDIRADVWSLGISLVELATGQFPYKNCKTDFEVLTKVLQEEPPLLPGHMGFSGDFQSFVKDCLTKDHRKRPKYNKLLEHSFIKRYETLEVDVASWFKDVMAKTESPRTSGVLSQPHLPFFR
The experiment is described as follows: Inhibition of GST-tagged human MKK7 expressed in Escherichia coli (BL21(DE3) pLysS) co-expressing human MEKK catalytic domain using biotinylated and GST-tagged rat GST-KN-SAPKalpha substrate incubated for 1 hr by time-resolved fluorescence based assay.

The test system of experiment [2] is Mus musculus. Put plainly: Inhibition of anti-CD3 antibody-induced IL2 production in Balb/c mouse dosed intravenously 5 mins before anti-CD3 antibody injection and measured 2 hrs post-challenge by ELISA. The class given is functional, organism-based. Background: In an ELISA, binding on a coated surface is turned into a signal by an enzyme label.
Experiment [3] has as its system Mus musculus. The experiment is described as follows: Inhibition of anti-CD3 antibody-induced IL4 production in Balb/c mouse dosed intravenously 5 mins before anti-CD3 antibody injection and measured 2 hrs post-challenge by ELISA. Type of experiment: functional, organism-based.
For experiment [4], the system named is Mus musculus. The experiment is described as follows: Inhibition of anti-CD3 antibody-induced IFNgamma production in Balb/c mouse dosed intravenously 5 mins before anti-CD3 antibody injection and measured 2 hrs post-challenge by ELISA. The class given is functional, organism-based.

pIC50: −log10 of the molar value. The source made the active and inactive calls. The rule behind the calls is not given here.

One may read the pIC50 as the negative decadic logarithm of the IC50, by convention in mol/L. A higher pIC50 goes with a low IC50. In experiment [1], `Cc1nc(N2CCC(O)CC2)c2c(n1)[nH]c1ccc(O)cc12` gave a pIC50 of over 6.00. Also, the inhibition result in the experiment with Mus musculus [2], in the experiment on Mus musculus [3] and with Mus musculus [4] was “Active” throughout.

Consider `Cc1nc(N2CCC(C)CC2)c2c(n1)[nH]c1ccc(O)cc12`, for which, in experiment [1], the negative-log IC50 (pIC50) is over 6.00. Moreover, the inhibition result with Mus musculus [2], with Mus musculus [3] and with Mus musculus [4] was “Active” each time.

On to `CC1CCCN(c2nc(N)nc3[nH]c4ccc(O)cc4c23)C1` (stereo unspecified), for which the pIC50 in experiment [1] is over 6.00. Besides, the inhibition result with Mus musculus [2], with Mus musculus [3] and with Mus musculus [4] was “Active” in each case.

With `CN(CCO)c1ncnc2[nH]c3ccc(O)cc3c12`, the negative logarithm of the IC50 (pIC50) in experiment [1] is over 6.00. Besides, the inhibition entry in the experiment with Mus musculus [2], in the experiment with Mus musculus [3] and with Mus musculus [4] was “Active” in each case.

In experiment [1], `NCCNc1ncnc2[nH]c3ccc(O)cc3c12` had a negative-log IC50 (pIC50) of over 6.00. The inhibition entry in the experiment with Mus musculus [2], in the experiment with Mus musculus [3] and in the experiment on Mus musculus [4] was “Active” throughout.

In experiment [1], `Nc1nc(NCCN2CCCC2)c2c(n1)[nH]c1ccc(O)cc12` showed a pIC50 of under 5.00. The inhibition entry with Mus musculus [2], in the experiment on Mus musculus [3] and with Mus musculus [4] was “Active” each time.

As for `NC1CCN(c2ncnc3[nH]c4ccc(O)cc4c23)CC1`, the pIC50 in experiment [1] was over 6.00. Also, the inhibition entry in the experiment with Mus musculus [2], in the experiment on Mus musculus [3] and in the experiment with Mus musculus [4] was “Active” each time.

For `OC[C@H](Cc1ccccc1)Nc1ncnc2[nH]c3ccc(O)cc3c12`, in experiment [1], the negative-log IC50 (pIC50) is over 6.00. Further, the inhibition entry in the experiment with Mus musculus [2], in the experiment with Mus musculus [3] and in the experiment on Mus musculus [4] was “Active” in each case.

In experiment [1], `CN(C)c1ncnc2[nH]c3ccc(O)cc3c12` showed a pIC50 of over 6.00. Moreover, the inhibition entry in the experiment on Mus musculus [2], with Mus musculus [3] and with Mus musculus [4] was “Active” in each case.

In experiment [1], `CC1CCCCN1c1ncnc2[nH]c3ccc(O)cc3c12` (stereo unspecified) had a pIC50 of over 6.00. The inhibition entry with Mus musculus [2], in the experiment on Mus musculus [3] and with Mus musculus [4] was “Active” throughout.

`OCCC1CCN(c2ncnc3[nH]c4ccc(O)cc4c23)CC1` showed a pIC50 in experiment [1] of over 6.00. Further, the inhibition result with Mus musculus [2], with Mus musculus [3] and in the experiment on Mus musculus [4] was “Active” throughout.

Compound `CN(c1ncnc2[nH]c3ccc(O)cc3c12)C1CCCCC1` showed a pIC50 in experiment [1] of over 6.00. In addition, the inhibition result in the experiment on Mus musculus [2], in the experiment on Mus musculus [3] and in the experiment on Mus musculus [4] was “Active” in each case.

With `Oc1ccc2[nH]c3ncnc(N[C@H]4CC[C@H](O)CC4)c3c2c1`, in experiment [1], the pIC50 is over 6.00. Further, the inhibition entry with Mus musculus [2], in the experiment with Mus musculus [3] and with Mus musculus [4] was “Active” throughout.

As for `OCCNc1ncnc2[nH]c3ccc(O)cc3c12`, the negative-log IC50 (pIC50) in experiment [1] is over 6.00. For the same compound, the inhibition entry with Mus musculus [2], in the experiment on Mus musculus [3] and with Mus musculus [4] was “Active” throughout.

As for `CC1CCN(c2ncnc3[nH]c4ccc(C(N)=O)cc4c23)CC1`, the pIC50 in experiment [1] is over 6.00. The inhibition entry in the experiment with Mus musculus [2], with Mus musculus [3] and with Mus musculus [4] was “Active” in each case.

`OC[C@@H]1CCCN1c1ncnc2[nH]c3ccc(O)cc3c12`: in experiment [1], the pIC50 is over 6.00. Moreover, the inhibition result with Mus musculus [2], in the experiment with Mus musculus [3] and in the experiment with Mus musculus [4] was “Active” each time.

In the case of `Nc1nc(N2CCC(O)CC2)c2c(n1)[nH]c1ccc(O)cc12`, the negative logarithm of the IC50 (pIC50) in experiment [1] was over 6.00. The inhibition entry with Mus musculus [2], with Mus musculus [3] and with Mus musculus [4] was “Active” each time.

With `Oc1ccc2[nH]c3ncnc(N4CCOCC4)c3c2c1`, the pIC50 in experiment [1] is over 6.00. In addition, the inhibition result in the experiment on Mus musculus [2], in the experiment with Mus musculus [3] and in the experiment with Mus musculus [4] was “Active” each time.

In experiment [1], `NC(=O)c1ccc2[nH]c3ncnc(N4CCCC(O)C4)c3c2c1` (stereo unspecified) had a pIC50 of over 6.00. Moreover, the inhibition result in the experiment on Mus musculus [2], with Mus musculus [3] and in the experiment with Mus musculus [4] was “Active” each time.

`O=C(O)C1CCN(c2ncnc3[nH]c4ccc(O)cc4c23)CC1` gave a negative logarithm of the IC50 (pIC50) in experiment [1] of over 6.00. Also, the inhibition result in the experiment on Mus musculus [2], in the experiment on Mus musculus [3] and with Mus musculus [4] was “Active” in each case.

As to `COC1CCN(c2nc(N)nc3[nH]c4ccc(O)cc4c23)CC1`, the negative logarithm of the IC50 (pIC50) in experiment [1] is over 6.00. The inhibition result with Mus musculus [2], in the experiment with Mus musculus [3] and in the experiment on Mus musculus [4] was “Active” throughout.

With `NC(=O)c1ccc2[nH]c3ncnc(N(CCO)Cc4ccccc4)c3c2c1`, the negative-log IC50 (pIC50) in experiment [1] is over 6.00. Further, the inhibition entry in the experiment on Mus musculus [2], in the experiment on Mus musculus [3] and in the experiment on Mus musculus [4] was “Active” each time.

Compound `Oc1ccc2[nH]c3ncnc(NC4CCCCCC4)c3c2c1` showed a negative-log IC50 (pIC50) in experiment [1] of over 6.00. Moreover, the inhibition entry in the experiment on Mus musculus [2], in the experiment on Mus musculus [3] and in the experiment with Mus musculus [4] was “Active” in each case.

As for `NC(=O)c1ccc2[nH]c3ncnc(N4CCCCC4CO)c3c2c1` (stereo unspecified), the pIC50 in experiment [1] is over 6.00. The inhibition result with Mus musculus [2], with Mus musculus [3] and with Mus musculus [4] was “Active” each time.

For the compound `Cc1nc(N2CCCC2)c2c(n1)[nH]c1ccc(O)cc12`, the pIC50 in experiment [1] was 6.00. In addition, the inhibition result in the experiment with Mus musculus [2], with Mus musculus [3] and in the experiment on Mus musculus [4] was “Active” each time.

As for `Nc1nc(N2CCCC2)c2c(n1)[nH]c1ccc(O)cc12`, the negative logarithm of the IC50 (pIC50) in experiment [1] was over 6.00. The inhibition result in the experiment on Mus musculus [2], with Mus musculus [3] and with Mus musculus [4] was “Active” in each case.

On to `Cc1nc(NCCO)c2c(n1)[nH]c1ccc(O)cc12`, for which the pIC50 in experiment [1] was 6.00. Moreover, the inhibition entry in the experiment on Mus musculus [2], in the experiment on Mus musculus [3] and in the experiment on Mus musculus [4] was “Active” throughout.

In turn, `NC(=O)c1ccc2[nH]c3ncnc(N4CCCC(N)C4)c3c2c1` (stereo unspecified) showed a negative-log IC50 (pIC50) in experiment [1] of over 6.00. Besides, the inhibition entry with Mus musculus [2], in the experiment on Mus musculus [3] and in the experiment with Mus musculus [4] was “Active” each time.

In experiment [1], `Cc1nc(NC(C)CO)c2c(n1)[nH]c1ccc(OCc3ccccc3)cc12` (stereo unspecified) showed a pIC50 of over 6.00. Also, the inhibition result in the experiment with Mus musculus [2], in the experiment on Mus musculus [3] and in the experiment on Mus musculus [4] was “Active” each time.

The compound `OCC1(Nc2ncnc3[nH]c4ccc(O)cc4c23)CCCC1` gave a pIC50 in experiment [1] of over 6.00. The inhibition result with Mus musculus [2], with Mus musculus [3] and with Mus musculus [4] was “Active” each time.

Consider `NC(=O)C1CCCN(c2ncnc3[nH]c4ccc(O)cc4c23)C1` (stereo unspecified), for which the pIC50 in experiment [1] was over 6.00. The inhibition entry in the experiment with Mus musculus [2], in the experiment with Mus musculus [3] and in the experiment with Mus musculus [4] was “Active” in each case.

`CC(C)N(C)c1nc(N)nc2[nH]c3ccc(O)cc3c12` showed a negative-log IC50 (pIC50) in experiment [1] of over 6.00. Also, the inhibition entry with Mus musculus [2], in the experiment on Mus musculus [3] and in the experiment with Mus musculus [4] was “Active” in each case.

As to `OCC1CCCN(c2ncnc3[nH]c4ccc(O)cc4c23)C1` (stereo unspecified), in experiment [1], the pIC50 was over 6.00. Further, the inhibition result with Mus musculus [2], in the experiment on Mus musculus [3] and in the experiment on Mus musculus [4] was “Active” in each case.

In experiment [1], `CC1CC(C)CN(c2ncnc3[nH]c4ccc(O)cc4c23)C1` (stereo unspecified) gave a negative-log IC50 (pIC50) of 6.00. The inhibition result with Mus musculus [2], in the experiment on Mus musculus [3] and with Mus musculus [4] was “Active” each time.

With `CC1CCCN(c2ncnc3[nH]c4ccc(O)cc4c23)C1` (stereo unspecified), the negative-log IC50 (pIC50) in experiment [1] was over 6.00. Besides, the inhibition result in the experiment on Mus musculus [2], in the experiment with Mus musculus [3] and with Mus musculus [4] was “Active” in each case.

Take `Oc1ccc2[nH]c3ncnc(N4CCCCCC4)c3c2c1`: the negative-log IC50 (pIC50) in experiment [1] is over 6.00. Further, the inhibition entry with Mus musculus [2], in the experiment with Mus musculus [3] and in the experiment on Mus musculus [4] was “Active” throughout.

In experiment [1], `CN(Cc1ccccc1)c1nc(N)nc2[nH]c3ccc(O)cc3c12` had a negative logarithm of the IC50 (pIC50) of over 6.00. In addition, the inhibition result with Mus musculus [2], in the experiment with Mus musculus [3] and in the experiment with Mus musculus [4] was “Active” throughout.

`NC(=O)c1ccc2[nH]c3ncnc(N4CCCCC4)c3c2c1` had a pIC50 in experiment [1] of over 6.00. The inhibition entry with Mus musculus [2], in the experiment with Mus musculus [3] and with Mus musculus [4] was “Active” throughout.

Take `NC(=O)C1CCN(c2ncnc3[nH]c4ccc(O)cc4c23)CC1`: the pIC50 in experiment [1] was over 6.00. The inhibition result in the experiment on Mus musculus [2], in the experiment on Mus musculus [3] and in the experiment on Mus musculus [4] was “Active” in each case.

These data come from ChEMBL document CHEMBL3714742, “Pyrimido (4,5-b) indole derivatives” (2003).
